Data from US7087248B2, “Pharmaceutical component based on human parathyroid hormone and a pharmaceutical composition for intranasal administration comprising the component” (Daiichi Asubio Pharma Co., Ltd., priority 2000, dated 2006).

Tested on: nasal cavity
Assay: Sensory test (1): odor and irritation evoked by nasal spraying
Procedure: As the control, physiological saline was used.
Then, aqueous solutions of various organic acids were prepared, in order to identify the factors responsible for the odor and irritation the preparation evokes when it is applied in the nasal cavity. The organic acid employed included acetic acid, citric acid and tartaric acid; oxalic acid; malic acid; phthalic acid; ascorbic acid; adipic acid; and glycolic acid.
Prepared were 0.1 v/v %, 0.2 v/v %, 0.3 v/v % and 0.6 v/v % aqueous solutions of acetic acid, and 0.6 w/v % aqueous solutions of citric acid, tartaric acid, oxalic acid, malic acid, phthalic acid, ascorbic acid, adipic acid, and glycolic acid. The solution was sprayed into the nasal cavity; and the odor and irritation were assessed in the same manner as above (testers consisting of four healthy normal adult males).
In the same manner as above, the test solution was applied in the nasal cavity, and the odor and irritation evoked thereby were assessed (testers consisting of 12 healthy normal adult males).

[1] = 0.6 w/v % aqueous solution sprayed into the nasal cavity, four healthy normal adult males

SMILES	Irritability [1]	Irritability (in vivo)
O=C1O[C@H]([C@@H](O)CO)C(O)=C1O [Ascorbic acid]	the same with that from physiological saline and +	
O=C(O)CO [Glycolic acid]	the same with that from physiological saline and +	
O=C(O)CC(O)C(=O)O (stereo not drawn) [Malic acid]	++++	
O=C(O)C(=O)O [Oxalic acid]	++++	
O=C(O)c1ccccc1C(=O)O [Phthalic acid]		+++
O=C(O)C(O)C(O)C(=O)O (stereo not drawn) [Tartaric acid]		++++
